From patent publication US10526323B2, “Indazole and azaindazole substituted compounds as mGluR4 allosteric potentiators, compositions, and methods of treating neurological dysfunction” (Vanderbilt University, priority 2015, dated 2020)

Target: mGluR4 (UniProt Q14833)
Assay: mGluR4 potentiation assay: increase in response to an EC20 concentration of agonist (species not given)
Format: cell-based
Details: EC50 for potentiation of mGluR4; table does not state human or rat
Protocol: The disclosed compounds and compositions can be evaluated for their ability to act as a potentiator of metabotropic glutamate receptor activity, in particular mGluR4 activity, by any suitable known methodology known in the art. For example, Chinese Hamster Ovary (CHO) cells transfected with human mGluR4 or […] co-transfected with rat mGluR4 and the G-protein regulated Inwardly Rectifying Potassium channel (GIRK) were plated in clear bottom assay plates for assay in a Hamamatsu FDSS Fluorometric Plate Reader. The cells were loaded with either a Ca2+-sensitive fluorescent dye or the thallium responsive dye and the plates were washed and placed into a suitable kinetic plate reader. For human mGluR4 assays, a fluorescence baseline was established for 3-5 seconds, the disclosed compounds were then added to the cells, and the response in cells was measured. Approximately two and a half minutes later, a concentration of mGluR4 orthosteric agonist (e.g. glutamate or L-AP4) eliciting approximately 20% (EC20) of the maximal agonist response was added to the cells, and the response was measured. Two minutes later, a concentration of mGluR4 agonist (e.g. glutamate or L-AP4) eliciting 80% (EC80) of the maximal agonist response was added to the cells, and the response was measured. For rat mGluR4/GIRK experiments, a baseline was established for approximately five seconds, disclosed compounds were added, and either an EC20 or EC80 concentration of agonist was added approximately two and one half minutes later. Potentiation of the agonist response of mGluR4 by the disclosed compounds was observed as an increase in response to the EC20 concentration of agonist in the presence of compound compared to the response to agonist in the absence of compound. Similarly, antagonism of the agonist response of mGluR4 by the disclosed compounds was observed as a decrease in response to the EC80 concentration of agonist in the presence of compound compared to the response to agonist in the absence of compound.
The above described assay operated in two modes. In the first mode, a range of concentrations of the disclosed compounds are added to cells, followed by a single fixed concentration of agonist. If the compound acts as a potentiator, an EC50 value for potentiation and a maximum extent of potentiation by the compound at this concentration of agonist is determined by non-linear curve fitting. If the compound acts as a noncompetitive antagonist, an IC50 value is determined by non-linear curve fitting. In the second mode, several fixed concentrations of the disclosed compounds are added to various wells on a plate, followed by a range in concentrations of agonist for each concentration of disclosed compound. The EC50 values for the agonist at each concentration of compound are determined by non-linear curve fitting. A decrease in the EC50 value of the agonist with increasing concentrations of the sample compound (a leftward shift of the agonist concentration-response curve) is an indication of the degree of mGluR4 potentiation at a given concentration of the sample compound. A decrease in the maximal response of the agonist with increasing concentrations of the sample compounds, with or without a rightward shift in agonist potency, is an indication of the degree of noncompetitive antagonism at mGluR4. The second mode also indicates whether the sample compounds also affect the maximum response to mGluR4 to agonists.
These compounds are positive allosteric modulators (potentiators) of human and rat mGluR4 and were selective for mGluR4 compared to the other seven subtypes of metabotropic glutamate receptors.

| SMILES | EC50 |
| --- | --- |
| Cn1nc(C2CC2)c2ccc(Nc3n[nH]c4cccnc34)cc21 [Example 1, N-(3-cyclopropyl-1-methyl-1H-indazol-6-yl)-1H-pyrazolo[4,3-b]pyridin-3-amine] | 0.043 µM |
| Cn1nc(C2CC2)c2ccc(Nc3n[nH]c4ncc(F)cc34)cc21 [Example 5, N-(3-cyclopropyl-1-methyl-1H-indazol-6-yl)-5-fluoro-1H-pyrazolo[3,4-b]pyridin-3-amine] | 0.364 µM |
| Cn1nc(C2CC2)c2ccc(Nc3n[nH]c4ccc(F)cc34)cc21 [Example 7, N-(3-cyclopropyl-1-methyl-1H-indazol-6-yl)-5-fluoro-1H-indazol-3-amine] | 1.23 µM |
| Cn1ncc2c(Cl)cc(Nc3n[nH]c4ccccc34)cc21 [Example 9, N-(4-chloro-1-methyl-1H-indazol-6-yl)-1H-indazol-3-amine] | 0.064 µM |
| Cn1nc(C2CC2)c2ccc(Nc3n[nH]c4cc(F)ccc34)cc21 [Example 11, N-(3-cyclopropyl-1-methyl-1H-indazol-6-yl)-6-fluoro-1H-indazol-3-amine] | 4.22 µM |
| Cn1nc(C2CC2)c2ccc(Nc3n[nH]c4ccccc34)cc21 [Example 12, N-(3-cyclopropyl-1-methyl-1H-indazol-6-yl)-1H-indazol-3-amine] | 0.128 µM |
| Cn1nc(C2CC2)c2ccc(Nc3n[nH]c4ncccc34)cc21 [Example 13, N-(3-cyclopropyl-1-methyl-1H-indazol-6-yl)-1H-pyrazolo[3,4-b]pyridin-3-amine] | 0.043 µM |
| Cn1nc(C2CC2)c2ccc(Nc3n[nH]c4c3CC(F)(F)CC4)cc21 [Example 14, 3-cyclopropyl-N-(5,5-difluoro-4,5,6,7-tetrahydro-1H-indazol-3-yl)-1-methyl-1H-indazol-6-amine] | > 10 µM |
| Cc1nn(C)c2cc(Nc3n[nH]c4cccnc34)ccc12 [Example 15, N-(1,3-dimethyl-1H-indazol-6-yl)-1H-pyrazolo[4,3-b]pyridin-3-amine] | 0.078 µM |
| CC(C)n1nc(C2CC2)c2ccc(Nc3n[nH]c4cccnc34)cc21 [Example 16, N-(3-cyclopropyl-1-isopropyl-1H-indazol-6-yl)-1H-pyrazolo[4,3-b]pyridin-3-amine] | > 10 µM |
| Cc1nn(C(C)C)c2cc(Nc3n[nH]c4ccccc34)ccc12 [Example 19, N-(1-isopropyl-3-methyl-1H-indazol-6-yl)-1H-indazol-3-amine] | > 10 µM |
| Cc1nn(C(C)C)c2cc(Nc3n[nH]c4c3CCCC4)ccc12 [Example 20, 1-isopropyl-3-methyl-N-(4,5,6,7-tetrahydro-1H-indazol-3-yl)-1H-indazol-6-amine] | > 10 µM |
| CC(=O)c1nn(C)c2cc(Nc3n[nH]c4cccnc34)ccc12 [Example 21, 1-(6-((1H-pyrazolo[4,3-b]pyridin-3-yl)amino)-1-methyl-1H-indazol-3-yl)ethan-1-one] | 0.764 µM |
| [2H]C([2H])([2H])n1nc(C2CC2)c2ccc(Nc3n[nH]c4cccnc34)cc21 [Example 23, N-(3-cyclopropyl-1-(methyl-d3)-1H-indazol-6-yl)-1H-pyrazolo[4,3-b]pyridin-3-amine] | 0.036 µM |
| CCc1nn(C)c2cc(Nc3n[nH]c4cccnc34)ccc12 [Example 24, N-(3-ethyl-1-methyl-1H-indazol-6-yl)-1H-pyrazolo[4,3-b]pyridin-3-amine] | 0.038 µM |
| Cn1nc(NC(=O)C(F)(F)F)c2ccc(Nc3n[nH]c4cccnc34)cc21 [Example 25, N-(6-((1H-pyrazolo[4,3-b]pyridin-3-yl)amino)-1-methyl-1H-indazol-3-yl)-2,2,2-trifluoroacetamide] | 0.313 µM |
| Cc1cc(Cn2ncc3ncc(Nc4n[nH]c5ccccc45)cc32)no1 [Example 26, N-(1H-indazol-3-yl)-1-((5-methylisoxazol-3-yl)methyl)-1H-pyrazolo[4,3-b]pyridin-6-amine] | > 10 µM |
| c1ccc2c(Nc3cnc4cnn(CC5CCC5)c4c3)n[nH]c2c1 [Example 27, 1-(cyclobutylmethyl)-N-(1H-indazol-3-yl)-1H-pyrazolo[4,3-b]pyridin-6-amine] | > 10 µM |
| Cn1nc(C2(C)CC2)c2ccc(Nc3n[nH]c4cccnc34)cc21 [Example 28, N-(1-methyl-3-(1-methylcyclopropyl)-1H-indazol-6-yl)-1H-pyrazolo[4,3-b]pyridin-3-amine] | 0.068 µM |
| Cn1nc(C2(C)CC2)c2ccc(Nc3n[nH]c4ncccc34)cc21 [Example 30, N-(1-methyl-3-(1-methylcyclopropyl)-1H-indazol-6-yl)-1H-pyrazolo[3,4-b]pyridin-3-amine] | 0.129 µM |
| Cc1cc(Cn2ncc3c(Nc4n[nH]c5cccnc45)cccc32)no1 [Example 32, N-(1-((5-methylisoxazol-3-yl)methyl)-1H-indazol-4-yl)-1H-pyrazolo[4,3-b]pyridin-3-amine] | 0.571 µM |
| Cn1ncc2c(Nc3n[nH]c4cccnc34)cccc21 [Example 33, N-(1-methyl-1H-indazol-4-yl)-1H-pyrazolo[4,3-b]pyridin-3-amine] | > 10 µM |

More lines, now with the values ahead:

| EC50 | SMILES |
| --- | --- |
| 0.029 µM | Cn1ncc2c(Cl)cc(Nc3n[nH]c4cccnc34)cc21 [Example 2, N-(4-chloro-1-methyl-1H-indazol-6-yl)-1H-pyrazolo[4,3-b]pyridin-3-amine] |
| 0.525 µM | Cn1cc2c(Cl)cc(Nc3n[nH]c4cccnc34)cc2n1 [Example 3, N-(4-chloro-2-methyl-2H-indazol-6-yl)-1H-pyrazolo[4,3-b]pyridin-3-amine] |
| 0.02 µM | Cn1nc(C2CC2)c2ccc(Nc3n[nH]c4nccnc34)cc21 [Example 4, N-(3-cyclopropyl-1-methyl-1H-indazol-6-yl)-1H-pyrazolo[3,4-b]pyrazin-3-amine] |
| 0.051 µM | Cn1ncc2c(Cl)cc(Nc3n[nH]c4ncccc34)cc21 [Example 6, N-(4-chloro-1-methyl-1H-indazol-6-yl)-1H-pyrazolo[3,4-b]pyridin-3-amine] |
| 0.016 µM | Cn1ncc2c(Cl)cc(Nc3n[nH]c4nccnc34)cc21 [Example 8, N-(4-chloro-1-methyl-1H-indazol-6-yl)-1H-pyrazolo[3,4-b]pyrazin-3-amine] |
| 0.515 µM | Cn1cc2c(Cl)cc(Nc3n[nH]c4nccnc34)cc2n1 [Example 10, N-(4-chloro-2-methyl-2H-indazol-6-yl)-1H-pyrazolo[3,4-b]pyrazin-3-amine] |
| > 10 µM | CC(C)n1nc(C2CC2)c2ccc(Nc3n[nH]c4nccnc34)cc21 [Example 17, N-(3-cyclopropyl-1-isopropyl-1H-indazol-6-yl)-1H-pyrazolo[3,4-b]pyrazin-3-amine] |
| > 10 µM | Cc1nn(C(C)C)c2cc(Nc3n[nH]c4nccnc34)ccc12 [Example 18, N-(1-isopropyl-3-methyl-1H-indazol-6-yl)-1H-pyrazolo[3,4-b]pyrazin-3-amine] |
| 0.01 µM | [2H]C([2H])([2H])n1nc(C2CC2)c2ccc(Nc3n[nH]c4nccnc34)cc21 [Example 22, N-(3-cyclopropyl-1-(methyl-d3)-1H-indazol-6-yl)-1H-pyrazolo[3,4-b]pyrazin-3-amine] |
| 0.025 µM | Cn1nc(C2(C)CC2)c2ccc(Nc3n[nH]c4nccnc34)cc21 [Example 29, N-(1-methyl-3-(1-methylcyclopropyl)-1H-indazol-6-yl)-1H-pyrazolo[3,4-b]pyrazin-3-amine] |
| 0.171 µM | Cn1nc(Cl)c2ccc(Nc3n[nH]c4cccnc34)cc21 [Example 31, N-(3-chloro-1-methyl-1H-indazol-6-yl)-1H-pyrazolo[4,3-b]pyridin-3-amine] |
